Assay results taken from US9511017B2, “Method and composition for use in preparation of a patient for surgery” (priority 2005, dated 2016).

Tests used:
[1] = Transcutaneous penetration / comparative release of active ingredient in horizontal glass Franz-type diffusion cells; format: in vitro ADME; details: 2 hrs; 0.5 g sample; mean of duplicates
Source text: The transcutaneous penetration and comparative release of active ingredient were compared using a horizontal glass Franz-type diffusion cells such as are described in R. Danids, (Skin Care Forum, Issue 37, August 2004, Cognis); S. Jung, (The University of California Irvine Undergraduate Research Journal, p. 25-26, Vol V, 2002, University of California Irvine); Guideline for Industry Non-sterile Semisolid Dosage Forms (SUPAC-SS CMC7), May 1997, U.S. Department of Health and Human Services FDA CDER. A standard cellophane dialysis membrane of MW cut off 6-8000 was used for the diffusion studies. The Franz cell receiving solution was composed of 50% v/v methanol/water. Cellophane membranes were mounted horizontally in the Franz cells. 0.5 g of sample were used for each test. The cell receptor was continuously stirred magnetically and maintained at 35+/−2° C. At the designated time 150 microliters aliquots were sampled from the receiving vessel of the Franz cells. 20 microliters were injected into HLPC. […]
0.5 g samples of compositions according to examples 2, 3 and 4 were compared over periods of 2, 4 and 7 hours with a prior art composition comprising 5% chlorhexidine in 62% ethyl alcohol. […] Column C, D, and E give the results for the actives in the respective formulations, both in mg and as a % of the sample quantity tested.

[2] = test system: Pseudomonas aeruginosa ATTC 15442; details: triclosan alone, known; cited from earlier work

| SMILES | chlorhexidine penetrated, % of the sample quantity tested [1] [%] | triclosan penetrated, % of the sample quantity tested [1] [%] | effectiveness against Pseudomonas aeruginosa [2] |
| --- | --- | --- | --- |
| [H]/N=C(\N/C(=N/[H])NCCCCCCNC(=N)NC(=N)Nc1ccc(Cl)cc1)Nc1ccc(Cl)cc1 [chlorhexidine] | < 0.24 | – | – |
| Oc1cc(Cl)ccc1Oc1ccc(Cl)cc1Cl [triclosan, 2,4,4-trichloro-2-hydroxy-diphenylether] | – | 0.24 | relatively ineffective |
